Reference: PMC5123075, “Structural and antitrypanosomal data of different carbasones of piperitone” (Data in Brief, 2016)

Key:
[1] = test system: Trypanosoma brucei brucei (Tbb); assay: in vitro antitrypanosomal activity (Alamar Blue method of Räz et al.); assay type: cell-based; details: for Selectivity index CHO/tbb: IC50 (CHO) / IC50 (Tbb); for Selectivity index WI38/tbb: IC50 (WI38) / IC50 (Tbb); for Selectivity index LC50/tbb: LC50 (A. salina) / IC50 (Tbb); for Antitrypanosomal activity, activity (verbal grade): Tbb; for Antitrypanosomal activity, activity (verbal grade) / IC50: in vitro; for IC50: Trypanosoma brucei, concentration providing 50% death of parasites, mean±SD of three experiments
Excerpt: (§1) The Antitrypanosomal activity, toxicity test, and cytotoxicity assay were done according to Räz et al., Sleet and Brendel and Stevigny et al., respectively.

[2] = toxicity test against Artemia salina Leach larvae (Sleet and Brendel); assay type: in vivo; details: Artemia salina Leach (larvae), in vivo; concentration providing 50% death of larvae; mean±SD of three experiments
Excerpt: as §1

[3] = test system: Artemia salina (Leach) larvae; assay: as above; assay type: in vivo; details: larvae
Excerpt: as §1

[4] = cytotoxicity assay on WI38 cells (Stevigny et al.); assay type: cell-based, human; details: WI38 non-cancer fibroblast cells; human normal fibroblast cells; mean±SD of three experiments
Excerpt: as §1

[5] = test system: human non cancer fibroblast cell line (WI38); assay: cytotoxicity assay on WI38 cells (Stevigny et al.); assay type: cell-based; details: for Selectivity index WI38/CHO: IC50 (WI38) / IC50 (CHO), selectivity between the two tested cell lines; for Cytotoxicity WI38, Activity (verbal grade): WI38 cells
Excerpt: as §1

[6] = cytotoxicity assay on CHO cells (Stevigny et al.); assay type: cell-based, Chinese Hamster; details: Chinese Hamster Ovary (CHO) cells; Chinese Hamster Ovary cells; mean±SD of three experiments
Excerpt: as §1

[7] = test system: Chinese Hamster Ovary (CHO) cells; assay: cytotoxicity assay on CHO cells (Stevigny et al.); assay type: cell-based; details: CHO cells
Excerpt: as §1

## CC1=C/C(=N\NC(N)=O)C(C(C)C)CC1 (stereo not drawn) [compound 1, piperitone semicarbazone]
[1]
  Selectivity index CHO/tbb: 0.45
  Selectivity index WI38/tbb: 1.01
  Selectivity index LC50/tbb: 0.78
  Antitrypanosomal activity, activity (verbal grade): low
  IC50: 478 ± 7.19 µM
[2]
  LC50: 373 ± 6.6 µM
[3]
  Toxicity against A. salina Leach, Activity (verbal grade): Not toxic
[4]
  IC50: 481 ± 6.69 µM
[5]
  Selectivity index WI38/CHO: 2.25
  Cytotoxicity WI38, Activity (verbal grade): Not cytotoxic
[6]
  IC50: 214 ± 7.56 µM
[7]
  Cytotoxicity CHO, Activity (verbal grade): Not toxic

## CC1=C/C(=N\NC(N)=S)C(C(C)C)CC1 (stereo not drawn) [compound 2, piperitone thiosemicarbazone]
[1]
  Selectivity index CHO/tbb: 0.28
  Selectivity index WI38/tbb: 1.92
  Selectivity index LC50/tbb: 1.16
  Antitrypanosomal activity, activity (verbal grade): moderate
  IC50: 74.6 ± 4.44 µM
[2]
  LC50: 86.7 ± 2.33 µM
[3]
  Toxicity against A. salina Leach, Activity (verbal grade): Not toxic
[4]
  IC50: 143 ± 4.89 µM
[5]
  Selectivity index WI38/CHO: 6.78
  Cytotoxicity WI38, Activity (verbal grade): Not cytotoxic
[6]
  IC50: 21.2 ± 1.37 µM
[7]
  Cytotoxicity CHO, Activity (verbal grade): Cytotoxic

## CC1=C/C(=N\NC(=O)Nc2ccccc2)C(C(C)C)CC1 (stereo not drawn) [compound 3, piperitone 4-phenyl semicarbazone]
[1]
  Antitrypanosomal activity, activity (verbal grade): trypanocidal
  IC50: 8.63 ± 0.81 µM
[2]
  LC50: 85.5 ± 2.28 µM
[3]
  Toxicity against A. salina Leach, Activity (verbal grade): Not toxic
[4]
  IC50: 81 ± 9.15 µM
[5]
  Selectivity index WI38/CHO: 1.23
  Cytotoxicity WI38, Activity (verbal grade): Not cytotoxic
[6]
  IC50: 65.9 ± 4.8 µM
[7]
  Cytotoxicity CHO, Activity (verbal grade): Moderate

## CC1=C/C(=N\NC(=S)Nc2ccccc2)C(C(C)C)CC1 (stereo not drawn) [compound 4, piperitone 4-phenyl thiosemicarbazone]
[1]
  Selectivity index CHO/tbb: 6.00
  Selectivity index WI38/tbb: 12.30
  Selectivity index LC50/tbb: 2.96
  Antitrypanosomal activity, activity (verbal grade): trypanocidal
  IC50: 10.9 ± 2.52 µM
[2]
  LC50: 32.2 ± 1.66 µM
[3]
  Toxicity against A. salina Leach, Activity (verbal grade): Toxic
[4]
  IC50: 134 ± 5.45 µM
[5]
  Selectivity index WI38/CHO: 2.05
  Cytotoxicity WI38, Activity (verbal grade): Not cytotoxic
[6]
  IC50: 65.3 ± 4.02 µM
[7]
  Cytotoxicity CHO, Activity (verbal grade): Moderate
